# Results as given in publication PMC5175284, “Mechanistic Study of Tetrahydrofuran- acetogenins In Triggering Endoplasmic Reticulum Stress Response-apotoposis in Human Nasopharyngeal Carcinoma” (Scientific Reports, 2016).
# Read-outs that look alike come from different tables or passages of the source. * marks the point of attachment. Cbz = O=C(OCc1ccccc1)*; CH2F = FC*
# Tests used:
# NPC-TW01 cells [1] = experiment: Caspase inhibition assay (MTT cell survival); format: cell-based, human; conditions: pretreated 1 hour, squamostatin A for 72 hours
# Protocol: For caspase inhibition experiments, cell-permeable and irreversible inhibitors of caspase-12 were added to the medium one hour before the administration of squamostatin A. Cell survival was determined using the MTT assay to evaluate the effects of the test compound on cell growth, as described previously.
# NPC-TW01 xenograft = experiment: NPC-TW01 s.c. xenograft antitumor experiment; format: in vivo, BALB/c nude mice; conditions: squamostatin A 0.5 mg/kg i.p. every three days; paclitaxel 10 mg/kg weekly
# Protocol: For the antitumor xenograft experiments, specific pathogen–free male athymic BALB/c nude mice, 6 to 8 weeks of age, were inoculated with 1 × 10^6 of exponential growth viable NPC-TW01 cells at the right flank of mice and mice were randomly divided into three groups (8 in each group). Tumor-implanted mice were treated i.p. with vehicle (5% DMSO/10% cremophor/85% saline) or 0.5 mg/kg squamostatin A every three days. Paclitaxel (10 mg/kg, once a week) was used as a positive control. Tumor size was measured every three days with a caliper, and tumor volume was calculated by the following formula: V = (1/2) × […]. At the end of the experiments, the animals were euthanized by carbon dioxide inhalation, followed by cervical dislocation. The animal experiments were supervised and approved by the Institutional Animal Care and Use Committee (IACUC) of China Medical University (Taichung, Taiwan). All animal studies were performed in accordance with the Animal Protection Act of Taiwan.
# NPC-TW01 cells [2] = experiment: Growth inhibition assay (MTT), NPC-TW01; format: cell-based; conditions: Homo sapiens
# Protocol: (§1) The colorimetric assay for cellular growth and survival was performed as described by Hansen et al., with slight modifications. Pre-determinate numbers of cells were seeded in a 96-well microplate and designated compounds at various concentrations were added for the indicated time period. MTT containing solution was added after compound treatment and conversion of MTT to formazan by metabolically viable cells was measured by absorbance at 490 nm in a 96-well microtiter plate reader. The percentage of conversion by mock-treated control cells was used to evaluate the effect of the chemicals on cell growth and to determine the IC50 concentration.
# HONE-1 cells = experiment: Growth inhibition assay (MTT), HONE-1; format: cell-based; conditions: Homo sapiens, HONE1, treated for three generations, read-out: Growth inhibitory activity IC50, HONE-1
# Protocol: as §1
# FaDu cells = experiment: Growth inhibition assay (MTT), FaDu; format: cell-based; conditions: Homo sapiens, treated for three generations, read-out: Growth inhibitory activity IC50, FaDu
# Protocol: as §1
# Jurkat cells = experiment: Growth inhibition assay (MTT), Jurkat; format: cell-based; conditions: Homo sapiens, treated for three generations, read-out: Growth inhibitory activity IC50, Jurkat
# Protocol: as §1
# H226 cells = experiment: Growth inhibition assay (MTT), H226; format: cell-based; conditions: Homo sapiens, NCI-H226, treated for three generations, read-out: Growth inhibitory activity IC50, H226
# Protocol: as §1
# Hep 3B cells = experiment: Growth inhibition assay (MTT), Hep 3B; format: cell-based; conditions: Homo sapiens, Hep3B, treated for three generations, footnote a, read-out: Growth inhibitory activity IC50, Hep 3B
# Protocol: as §1
# HT-1080 cells = experiment: Growth inhibition assay (MTT), HT-1080; format: cell-based; conditions: Homo sapiens, treated for three generations, read-out: Growth inhibitory activity IC50, HT-1080
# Protocol: as §1
# Detroit 551 cells = experiment: Growth inhibition assay (MTT), Detroit 551 normal fibroblasts; format: cell-based; conditions: Homo sapiens, treated for three generations, read-out: Growth inhibitory activity IC50, Detroit 551
# Protocol: as §1
# TW01-R-MTX cells = experiment: Growth inhibition assay (MTT), methotrexate-resistant NPC-TW01; format: cell-based; conditions: Homo sapiens, drug-resistant cell line, three generations, read-out: Growth inhibitory activity IC50, TW01-R-MTX
# Protocol: as §1
# HONE R-MTX cells = experiment: Growth inhibition assay (MTT), methotrexate-resistant HONE-1; format: cell-based; conditions: Homo sapiens, HONE1, drug-resistant cell line, three generations, read-out: Growth inhibitory activity IC50, HONE R-MTX
# Protocol: as §1
# OECM-1 cells = experiment: Growth inhibition assay (MTT), OECM-1; format: cell-based; conditions: Homo sapiens, OECM1, Supplemental Table 1, read-out: Growth inhibitory activity IC50, OECM-1
# Protocol: as §1
# SCC-15 cells = experiment: Growth inhibition assay (MTT), SCC-15; format: cell-based; conditions: Homo sapiens, Supplemental Table 1, read-out: Growth inhibitory activity IC50, SCC-15
# Protocol: as §1
# SCC-25 cells = experiment: Growth inhibition assay (MTT), SCC-25; format: cell-based; conditions: Homo sapiens, Supplemental Table 1, read-out: Growth inhibitory activity IC50, SCC-25
# Protocol: as §1
# NPC-TW01 cells [3] = experiment: Cell cycle distribution by PI staining and flow cytometry; format: cell-based, human; conditions: IC50 concentration, 24 hours
# Protocol: To measure the THF-ACGs effect on the cell cycle distribution, the THF-ACGs-treated cells were collected, fixed with ice-cold alcohol, treated with RNase and stained with propidium iodide. The DNA content of each sample was evaluated by FACScan flow cytometer and ratio of cell cycle phases were determined by ModFit software (Verity Software House Inc., Topsham, ME).
# NPC-TW01 cells [4] = experiment: Annexin-V/PI apoptosis assay by flow cytometry; format: cell-based, human; conditions: IC50 concentration, 36 hours
# Protocol: THF-ACGs induced apoptotic phenomena were monitored by The Annexin V-FITC Apoptosis Detection Kit II (BD Biosciences Pharmingen) according to the manufacturer’s instructions. Briefly, THF-ACGs-treated or control cells were collected and resuspended in 400 μL 1 × binding buffer at a concentration of ~1 × 10^6 cells/ml, and 5 μL of purified recombinant Annexin V and PI reagent were added. After incubation at room temperature for 15 min in the dark, the intensity of Annexin V and PI was measured by flow cytometer immediately and results were analyzed using De Novo software (MultiCycle AV Plug-in for FCS Express).
# NPC-TW01 cells [5] = experiment: Cytosolic Ca2+ concentration (Fluo-3, flow cytometry); format: cell-based, human; conditions: IC50 concentration, 24 hours
# Protocol: (§2) The cytosolic and mitochondrial Ca^2+ concentrations were measured using fluo-3 and Rhod-2, respectively. The intensity of de-esterification of intracellular AM esters in the THF-ACGs treated or control tumor cells were measured after 30 mins of incubation. For each analysis, 10,000 events were recorded and results were analyzed using De Novo software.
# NPC-TW01 cells [6] = experiment: Mitochondrial Ca2+ concentration (Rhod-2, flow cytometry); format: cell-based, human; conditions: 24 hours
# Protocol: as §2
# NPC-TW01 cells [7] = experiment: Mitochondrial membrane potential (DiOC6 staining, flow cytometry); format: cell-based, human; conditions: IC50 concentration, 24 hours
# Protocol: To measure the change of mitochondrial potential transition (MPT), THF-ACGs treated cells were labeled with 100 nM DiOC6, harvested and suspended in PBS. The intensity of DiOC6 in cells was measured using FACScan flow cytometer.
# [8] = treated for three generations, read-out: Growth inhibitory activity IC50, NPC-TW01
compound,measurement,setting,value
Cbz-ATAD-CH2F,Effect of caspase-12 inhibitor pretreatment on squamostatin A toxicity against NPC-TW01 cell growth,NPC-TW01 cells [1],significantly block the toxicity of squamostatin A
"CC(=O)O[C@H]1C(=O)[C@@]2(C)[C@H]([C@H](OC(=O)c3ccccc3)[C@]3(O)C[C@H](OC(=O)[C@H](O)[C@@H](NC(=O)c4ccccc4)c4ccccc4)C(C)=C1C3(C)C)[C@]1(OC(C)=O)CO[C@@H]1C[C@@H]2O [paclitaxel, Paclitaxel]",Overall tumor volume between weeks 6 and 13,NPC-TW01 xenograft,tumor continued growth slowly
"CN(Cc1cnc2nc(N)nc(N)c2n1)c1ccc(C(=O)N[C@@H](CCC(=O)O)C(=O)O)cc1 [methotrexate, reference compound]",IC50,NPC-TW01 cells [2]; [8],0.043 µM
same,IC50,HONE-1 cells,0.0657 µM
same,IC50,FaDu cells,0.0921 µM
same,IC50,Jurkat cells,0.0183 µM
same,IC50,H226 cells,0.0398 µM
same,IC50,Hep 3B cells,> 2 µM
same,IC50,HT-1080 cells,0.0141 µM
same,IC50,Detroit 551 cells; footnote a,2 µM
same,IC50,TW01-R-MTX cells; footnote b,1900 µM
same,IC50,HONE R-MTX cells; footnote a,39.6 µM
CCCCCCCCCCCC[C@@H](O)[C@H]1CC[C@@H]([C@@H](O)CCCCC(=O)CCCCCCCC2=C[C@H](C)OC2=O)O1 [corossolone],IC50,"NPC-TW01 cells [2]; Supplemental Table 1, read-out: Growth inhibitory activity IC50, NPC-TW01 (Supplemental Table 1)",0.0313 µM
same,IC50,NPC-TW01 cells [2]; [8],0.121 µM
same,IC50,HONE-1 cells,0.132 µM
same,IC50,FaDu cells; footnote a,> 2 µM
same,IC50,Jurkat cells,0.0003 µM
same,IC50,H226 cells; footnote a,> 2 µM
same,IC50,Hep 3B cells,> 2 µM
same,IC50,HT-1080 cells,0.705 µM
same,IC50,Detroit 551 cells,0.354 µM
same,IC50,TW01-R-MTX cells,0.0288 µM
same,IC50,HONE R-MTX cells,0.147 µM
same,IC50,OECM-1 cells,> 2 µM
same,IC50,SCC-15 cells,> 2 µM
same,IC50,SCC-25 cells,> 2 µM
same,"Cell cycle distribution, G0/G1",NPC-TW01 cells [3],40.9%
same,"Cell cycle distribution, G2/M",NPC-TW01 cells [3],30.5%
same,"Cell cycle distribution, S",NPC-TW01 cells [3],28.6%
same,"Annexin-V positive, E (early phase apoptosis)",NPC-TW01 cells [4],4.9%
same,"Annexin-V positive, L (late phase apoptosis)",NPC-TW01 cells [4],7.4%
same,"Ca2+ Cytosol (Fluo-3) GEO mean value, Treated",NPC-TW01 cells [5],149.2
same,"Ca2+ Mitochondria (Rho-2) GEO mean value, Treated",NPC-TW01 cells [6]; IC50 concentration,149.2
same,Increase of mitochondrial Ca2+ (Rho-2) vs Ctrl,NPC-TW01 cells [6]; IC50 concentration,29%
same,Decrease of mitochondrial membrane potential vs Ctrl,NPC-TW01 cells [7],27%
same,"Mitochondrial membrane potential GEO mean value, Treated",NPC-TW01 cells [7],777
"NCCOB(c1ccccc1)c1ccccc1 [2-APB, 2-Aminoethoxydiphenyl borate, reference compound]",Content of mitochondrial calcium on squamostatin A treatment in the presence of 2-APB,"NPC-TW01 cells [6]; 2-APB 10 μM, squamostatin A IC50 concentration",diminish the content of mitochondrial calcium
